The source of these data is patent US11786519B2, “Apoptosis-inducing agents for the treatment of cancer and immune and autoimmune diseases” (AbbVie Inc., priority 2011, dated 2023).

Bounds are passed on as bounds.

Bcl-xL, sequence (Q07817 whole entry): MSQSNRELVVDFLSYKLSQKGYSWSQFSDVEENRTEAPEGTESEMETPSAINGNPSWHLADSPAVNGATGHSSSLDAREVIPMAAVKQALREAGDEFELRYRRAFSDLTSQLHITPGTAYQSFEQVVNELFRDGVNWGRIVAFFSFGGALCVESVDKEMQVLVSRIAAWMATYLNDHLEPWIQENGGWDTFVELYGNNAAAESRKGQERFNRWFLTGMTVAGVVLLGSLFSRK

This experiment concerns the target Bcl-xL (Homo sapiens, UniProt Q07817). As to the kind of experiment: TR-FRET binding assay, competition with F-Bak for Bcl-xL. The conditions noted are these: competition with F-Bak probe, GST-Bcl-xL. As to the method:
Determination of the utility of compounds having Formula (I) as binders to and inhibitors of anti-apoptotic Bcl-xL proteins was performed using the Time Resolved-Fluorescence Resonance Energy Transfer (TR-FRET) Assay. Tb-anti-GST antibody was purchased from Invitrogen (Catalog No. PV4216).
The measurement of competition of compounds of the invention with F-Bak for a Bcl-2 family protein (Bcl-xL) binding site using a Time Resolved Fluorescence Resonance Energy Transfer (TR-FRET) binding assay:
Test compounds were serially diluted in DMSO starting at 50 µM (2× starting concentration; 10% DMSO) and 10 μL transferred into a 384-well plate.
The samples are then mixed on a shaker for 1 minute then incubated for an additional 2 hours at room temperature. For each assay plate, a probe/antibody and protein/antibody/probe mixture were included as a negative and a positive control, respectively. Fluorescence was measured on the ENVISION plate reader (Perkin Elmer) using a 340/35 nm excitation filter and 520/525 (F-Bak) and 495/510 nm ([…]) emission filters. Dissociation constants (Ki) were determined using Wang's equation (Wang, Z. X. An exact mathematical expression for describing competitive binding of two different ligands to a protein molecule. FEBS Lett. 1995 360:111-114). The TR-FRET assay can be performed in the presence of varying concentrations of human serum (HS) or fetal bovine serum (FBS).
On the technique in general: Time-resolved FRET reads energy transfer from a long-lived donor to a nearby acceptor.
As a reminder, the Ki is the equilibrium dissociation constant of an inhibitor or competing ligand from its target. Higher therefore signals a looser hold on the target. On to `O=C(Nc1nc2ccccc2s1)c1cccc2c1CN(c1ccc(-c3cnn(CC45CC6CC(CC(C6)C4)C5)c3)c(C(=O)O)n1)CC2` [Example 1, 6-[8-(1,3-benzothiazol-2-ylcarbamoyl)-3,4-dihydroisoquinolin-2(1H)-yl]-3-{1-[tricyclo[3.3.1.1^3,7]dec-1-ylmethyl]-1H-pyrazol-4-yl}pyridine-2-carboxylic acid], for which the Ki is below 0.1 nM.
The compound `O=C(Nc1nc2ccccc2s1)c1cccc2c1CN(c1ccc(-c3cnn(CC4CCC5(CCC5)CC4)c3)c(C(=O)O)n1)CC2` [Example 4, 6-[8-(1,3-benzothiazol-2-ylcarbamoyl)-3,4-dihydroisoquinolin-2(1H)-yl]-3-[1-(spiro[3.5]non-7-ylmethyl)-1H-pyrazol-4-yl]pyridine-2-carboxylic acid] gave a Ki of 0.5 nM.
With `O=C(Nc1nc2ccccc2s1)c1cccc2c1CN(c1ccc(-c3cnn(CC45CC6CC(CC(O)(C6)C4)C5)c3)c(C(=O)O)n1)CC2` [Example 6, 6-[8-(1,3-benzothiazol-2-ylcarbamoyl)-3,4-dihydroisoquinolin-2(1H)-yl]-3-(1-{[3-hydroxytricyclo[3.3.1.1^3,7]dec-1-yl]methyl}-1H-pyrazol-4-yl)pyridine-2-carboxylic acid] the figure was below 0.1 nM; with `COC12CC3CC(CC(Cn4cc(-c5ccc(N6CCc7cccc(C(=O)Nc8nc9ccccc9s8)c7C6)nc5C(=O)O)cn4)(C3)C1)C2` [Example 7, 6-[8-(1,3-benzothiazol-2-ylcarbamoyl)-3,4-dihydroisoquinolin-2(1H)-yl]-3-(1-{[3-methoxytricyclo[3.3.1.1^3,7]dec-1-yl]methyl}-1H-pyrazol-4-yl)pyridine-2-carboxylic acid], below 0.1 nM; with `COCCOC12CC3CC(CC(Cn4cc(-c5ccc(N6CCc7cccc(C(=O)Nc8nc9ccccc9s8)c7C6)nc5C(=O)O)cn4)(C3)C1)C2` [Example 8, 6-[8-(1,3-benzothiazol-2-ylcarbamoyl)-3,4-dihydroisoquinolin-2(1H)-yl]-3-(1-{[3-(2-methoxyethoxy)tricyclo[3.3.1.1^3,7]dec-1-yl]methyl}-1H-pyrazol-4-yl)pyridine-2-carboxylic acid], below 0.1 nM.
`O=C(Nc1nc2ccccc2s1)c1cccc2c1CN(c1ccc(-c3cnn(CC4C5CC6CC(C5)CC4C6)c3)c(C(=O)O)n1)CC2` (centres unmarked) [Example 10, 6-[8-(1,3-benzothiazol-2-ylcarbamoyl)-3,4-dihydroisoquinolin-2(1H)-yl]-3-[1-(tricyclo[3.3.1.1^3,7]dec-2-ylmethyl)-1H-pyrazol-4-yl]pyridine-2-carboxylic acid] registered an inhibitory constant (Ki) below 0.1 nM.
`O=C(Nc1nc2ccccc2s1)c1cccc2c1CN(c1ccc(-c3cnn(CC45CC6CC(CC(Br)(C6)C4)C5)c3)c(C(=O)O)n1)CC2` [Example 11, 6-[8-(1,3-benzothiazol-2-ylcarbamoyl)-3,4-dihydroisoquinolin-2(1H)-yl]-3-(1-{[3-bromotricyclo[3.3.1.1^3,7]dec-1-yl]methyl}-1H-pyrazol-4-yl)pyridine-2-carboxylic acid] yielded a Ki below 0.1 nM.
As for `CC(C)OC12CC3CC(CC(Cn4cc(-c5ccc(N6CCc7cccc(C(=O)Nc8nc9ccccc9s8)c7C6)nc5C(=O)O)cn4)(C3)C1)C2` [Example 12, 6-[8-(1,3-benzothiazol-2-ylcarbamoyl)-3,4-dihydroisoquinolin-2(1H)-yl]-3-(1-{[3-(propan-2-yloxy)tricyclo[3.3.1.1^3,7]dec-1-yl]methyl}-1H-pyrazol-4-yl)pyridine-2-carboxylic acid], the figure is below 0.1 nM.
Compound `O=C(Nc1nc2ccccc2s1)c1cccc2c1CN(c1ccc(-c3cnn(CC45CC6CC(CC(C6)O4)C5)c3)c(C(=O)O)n1)CC2` [Example 13, 6-[8-(1,3-benzothiazol-2-ylcarbamoyl)-3,4-dihydroisoquinolin-2(1H)-yl]-3-[1-(2-oxatricyclo[3.3.1.1^3,7]dec-1-ylmethyl)-1H-pyrazol-4-yl]pyridine-2-carboxylic acid] yielded a Ki below 0.1 nM.
`O=C(Nc1nc2ccccc2s1)c1cccc2c1CN(c1ccc(-c3cnn(CC45CC6CC(C4)CC(N4CCOCC4)(C6)C5)c3)c(C(=O)O)n1)CC2` [Example 15, 6-[8-(1,3-benzothiazol-2-ylcarbamoyl)-3,4-dihydroisoquinolin-2(1H)-yl]-3-(1-{[3-(morpholin-4-yl)tricyclo[3.3.1.1^3,7]dec-1-yl]methyl}-1H-pyrazol-4-yl)pyridine-2-carboxylic acid] registered a Ki below 0.1 nM.
As for `Cc1c(OCC23CC4CC(CC(C4)C2)C3)cccc1-c1ccc(N2CCc3cccc(C(=O)Nc4nc5ccccc5s4)c3C2)nc1C(=O)O` [Example 21, 6-[8-(1,3-benzothiazol-2-ylcarbamoyl)-3,4-dihydroisoquinolin-2(1H)-yl]-3-{2-methyl-3-[tricyclo[3.3.1.1^3,7]dec-1-ylmethoxy]phenyl}pyridine-2-carboxylic acid], the figure is 0.6 nM; as for `Cc1c(-c2ccc(N3CCc4cccc(C(=O)Nc5nc6ccccc6s5)c4C3)nc2C(=O)O)ccnc1OCC12CC3CC(CC(C3)C1)C2` [Example 27, 6-[8-(1,3-benzothiazol-2-ylcarbamoyl)-3,4-dihydroisoquinolin-2(1H)-yl]-3′-methyl-2′-(tricyclo[3.3.1.1^3,7]dec-1-ylmethoxy)-3,4′-bipyridine-2-carboxylic acid], 0.1 nM; as for `Cc1c(-c2ccc(N3CCc4cccc(C(=O)Nc5nc6ncccc6s5)c4C3)nc2C(=O)O)cnn1CC12CC3CC(CC(C3)C1)C2` [Example 30, 3-[5-methyl-1-(tricyclo[3.3.1.1^3,7]dec-1-ylmethyl)-1H-pyrazol-4-yl]-6-[8-([1,3]thiazolo[4,5-b]pyridin-2-ylcarbamoyl)-3,4-dihydroisoquinolin-2(1H)-yl]pyridine-2-carboxylic acid], below 0.1 nM.
`Cc1c(-c2ccc(N3CCc4cccc(C(=O)Nc5nc6ccccc6s5)c4C3)nc2C(=O)O)cc(C#N)n1CCC12CC3CC(CC(C3)C1)C2` [Example 34, 6-[8-(1,3-benzothiazol-2-ylcarbamoyl)-3,4-dihydroisoquinolin-2(1H)-yl]-3-{5-cyano-2-methyl-1-[2-(tricyclo[3.3.1.1^3,7]dec-1-yl)ethyl]-1H-pyrrol-3-yl}pyridine-2-carboxylic acid] came in with a Ki of 0.4 nM.
With `COC12CC3(C)CC(C)(CC(Cn4ncc(-c5ccc(N6CCc7cccc(C(=O)Nc8nc9ccccc9s8)c7C6)nc5C(=O)O)c4C)(C3)C1)C2` [Example 38, 6-[8-(1,3-benzothiazol-2-ylcarbamoyl)-3,4-dihydroisoquinolin-2(1H)-yl]-3-(1-{[3-methoxy-5,7-dimethyltricyclo[3.3.1.1^3,7]dec-1-yl]methyl}-5-methyl-1H-pyrazol-4-yl)pyridine-2-carboxylic acid] the figure was below 0.1 nM; with `COC12CC3CC(CC(Cn4ncc(-c5ccc(N6CCc7cccc(C(=O)Nc8nc9ccccc9s8)c7C6)nc5C(=O)NS(=O)(=O)N5CCOCC5)c4C)(C3)C1)C2` [Example 39, N-(1,3-benzothiazol-2-yl)-2-{5-(1-{[3-methoxytricyclo[3.3.1.1^3,7]dec-1-yl]methyl}-5-methyl-1H-pyrazol-4-yl)-6-[(morpholin-4-ylsulfonyl)carbamoyl]pyridin-2-yl}-1,2,3,4-tetrahydroisoquinoline-8-carboxamide], 12 nM.
As for `COC12CC3CC(CC(Cn4ncc(-c5ccc(N6CCc7cccc(C(=O)Nc8nc9ccccc9s8)c7C6)nc5C(=O)NS(=O)(=O)C5CC5)c4C)(C3)C1)C2` [Example 41, N-(1,3-benzothiazol-2-yl)-2-{6-[(cyclopropylsulfonyl)carbamoyl]-5-(1-{[3-methoxytricyclo[3.3.1.1^3,7]dec-1-yl]methyl}-5-methyl-1H-pyrazol-4-yl)pyridin-2-yl}-1,2,3,4-tetrahydroisoquinoline-8-carboxamide], the figure is below 0.1 nM.
As for `O=C(Nc1nc2ccccc2s1)c1cccc2c1CN(c1ccc(-c3cnn(CC45CC6CC(CC(C6)C4)C5)c3Cl)c(C(=O)O)n1)CC2` [Example 42, 6-[8-(1,3-benzothiazol-2-ylcarbamoyl)-3,4-dihydroisoquinolin-2(1H)-yl]-3-{5-chloro-1-[tricyclo[3.3.1.1^3,7]dec-1-ylmethyl]-1H-pyrazol-4-yl}pyridine-2-carboxylic acid], the figure is 0.3 nM; as for `N#Cc1c(NC23CC4CC(CC(C4)C2)C3)cccc1-c1ccc(N2CCc3cccc(C(=O)Nc4nc5ccccc5s4)c3C2)nc1C(=O)O` [Example 47, 6-[8-(1,3-benzothiazol-2-ylcarbamoyl)-3,4-dihydroisoquinolin-2(1H)-yl]-3-{2-cyano-3-[tricyclo[3.3.1.1^3,7]dec-1-ylamino]phenyl}pyridine-2-carboxylic acid], 0.2 nM; as for `Cc1c(NC(=O)C23CC4CC(CC(C4)C2)C3)cccc1-c1ccc(N2CCc3cccc(C(=O)Nc4nc5ccccc5s4)c3C2)nc1C(=O)O` [Example 50, 6-[8-(1,3-benzothiazol-2-ylcarbamoyl)-3,4-dihydroisoquinolin-2(1H)-yl]-3-(2-methyl-3-{[tricyclo[3.3.1.1^3,7]dec-1-ylcarbonyl]amino}phenyl)pyridine-2-carboxylic acid], 9 nM.
